In publication PMC6298432 (ACS chemical biology, 2017):

Columns and labels:
[1] = tested on: mouse dihydrofolate reductase; conditions: cited from earlier work
[2] = tested on: M. tuberculosis ATCC 27294; assay: M. tuberculosis growth inhibition assay; assay type: cell-based
[3] = tested on: Mycobacterium tuberculosis (Mtb); assay type: cell-based; conditions: active = ≥80% inhibition of bacterial growth
E. coli = assay: Historical phenotypic screen for inhibitors of E. coli growth; assay type: cell-based; conditions: active = ≥80% inhibition of bacterial growth
[4] = molecular target: FolA (dihydrofolate reductase, DHFR); conditions: cited from earlier work
[5] = tested on: FolA (dihydrofolate reductase, DHFR); assay: ALIS binding to FolA; set-up: species or system E. coli

| Structure (SMILES) | Inhibition of Mtb growth (antibacterial activity) [2] | Activity in E. coli growth phenotypic screen (E. coli) | Binding to FolA detected in ALIS [5] | also measured |
| --- | --- | --- | --- | --- |
| C#CCN(Cc1cnc2nc(N)nc(N)c2n1)c1ccc(C(=O)N[C@@H](CCC(=O)O)C(=O)O)cc1 [10-PAP, 10-propargylaminopterin] | retained bioactivity |  |  | Inhibition of mouse dihydrofolate reductase [1]: inhibit; Activity in Mtb growth phenotypic screen [3]: active |
| COc1ccc(Cc2cnc(N)nc2N)cc1OC [Diaveridine] |  | active | binders detected | IC50 for FolA [4]: nanomolar |
| CN(Cc1cnc2nc(N)nc(N)c2n1)c1ccc(C(=O)N[C@@H](CCC(=O)O)C(=O)O)cc1 [Methotrexate] | no efficacy |  |  |  |
| COc1cc(Cc2cnc(N)nc2N)cc(OC)c1OC [Trimethoprim] |  | active |  |  |
| COc1cc(Cc2cnc(N)nc2N)cc(OC)c1Br [brodimoprim] |  |  | failure to detect their binding |  |
